Reference: ChEMBL document CHEMBL1150101, “Novel antiplatelet naphthalene from Rhamnus nakaharai” (J Nat Prod, 1995)

Assays:
[1] = Antiplatelet activity against washed rabbit platelet assessed as collagen-induced platelet aggregation at 300 uM administered 3 mins before collagen challenge; type: functional, Oryctolagus cuniculus
[2] = Antiplatelet activity against washed rabbit platelet assessed as PAF-induced platelet aggregation at 300 uM administered 3 mins before PAF challenge; type: functional, Oryctolagus cuniculus
[3] = Antiplatelet activity against washed rabbit platelet assessed as thrombin-induced platelet aggregation at 300 uM administered 3 mins before thrombin challenge; type: functional, Oryctolagus cuniculus
[4] = Antiplatelet activity against washed rabbit platelet assessed as arachidonic acid-induced platelet aggregation at 300 uM administered 3 mins before arachidonic acid challenge; type: functional, Oryctolagus cuniculus
[5] = Antiplatelet activity against human platelet assessed as epinephrine-induced platelet aggregation at 50 uM administered 3 mins before epinephrine challenge; type: functional
[6] = Antiplatelet activity against washed rabbit platelet assessed as arachidonic acid-induced platelet aggregation; type: functional, cell-based; conditions: Oryctolagus cuniculus
[7] = Antiplatelet activity against human platelet assessed as epinephrine-induced platelet aggregation at 20 uM administered 3 mins before epinephrine challenge; type: functional
[8] = Antiplatelet activity against washed rabbit platelet assessed as PAF-induced platelet aggregation at 50 uM administered 3 mins before PAF challenge; type: functional, Oryctolagus cuniculus
[9] = Antiplatelet activity against washed rabbit platelet assessed as thrombin-induced platelet aggregation at 50 uM administered 3 mins before thrombin challenge; type: functional, Oryctolagus cuniculus
[10] = Antiplatelet activity against human platelet assessed as epinephrine-induced platelet aggregation administered 3 mins before epinephrine challenge; type: functional
[11] = Antiplatelet activity against washed rabbit platelet assessed as collagen-induced platelet aggregation at 50 uM administered 3 mins before collagen challenge; type: functional, Oryctolagus cuniculus
[12] = Antiplatelet activity against washed rabbit platelet assessed as arachidonic acid-induced platelet aggregation at 50 uM administered 3 mins before arachidonic acid challenge; type: functional, Oryctolagus cuniculus
[13] = Antiplatelet activity against human platelet assessed as epinephrine-induced platelet aggregation at 100 uM administered 3 mins before epinephrine challenge; type: functional
[14] = Antiplatelet activity against washed rabbit platelet assessed as thrombin-induced platelet aggregation at 400 uM administered 3 mins before thrombin challenge; type: functional, Oryctolagus cuniculus
[15] = Antiplatelet activity against washed rabbit platelet assessed as collagen-induced platelet aggregation at 400 uM administered 3 mins before collagen challenge; type: functional, Oryctolagus cuniculus
[16] = Antiplatelet activity against washed rabbit platelet assessed as PAF-induced platelet aggregation at 400 uM administered 3 mins before PAF challenge; type: functional, Oryctolagus cuniculus
[17] = Antiplatelet activity against washed rabbit platelet assessed as arachidonic acid-induced platelet aggregation at 400 uM administered 3 mins before arachidonic acid challenge; type: functional, Oryctolagus cuniculus

`COc1c(-c2ccc(O)c(O)c2)oc2cc(O)cc(O)c2c1=O` [3-O-METHYLQUERCETIN] showed an Activity [1] of 5.4%, an Activity [2] of 50.1% and an Activity [3] of 81.2%. It also gave an Activity [4] of 0%.

Work on `COc1cc(OC(C)=O)cc2cc(C)c(C(C)=O)c(OC(C)=O)c12` [ISOTORACHRYSONE PERACETATE] yielded an Activity [5] of 13%, an Activity [1] of 16.8% and an IC50 [6] of 5.1 µM. The Activity [2] was 86.7%, the Activity [3] was 82.7% and the Activity [7] was 83%. For the same molecule, the Activity [4] was 0%.

`CC(=O)Oc1ccccc1C(=O)O` [ASPIRIN] showed an Activity [8] of 90.5%, an Activity [9] of 91.9% and an Activity [10] of 39.6%. The Activity [11] was 85.4% and the Activity [12] was 0%.

`COc1cc(O)c2c(O)c3c(cc2c1)COC3=O` gave an Activity [1] of 41.7%, an Activity [2] of 80% and an Activity [3] of 88.1%. For the same molecule, the Activity [4] was 22.1%.

With `COc1c(-c2ccc(OC(C)=O)c(OC(C)=O)c2)oc2cc(OC(C)=O)cc(OC(C)=O)c2c1=O` the Activity [1] was 0%, the Activity [2] was 0% and the Activity [3] was 64.9%. The Activity [4] was 0%.

Molecule `COc1cc(O)cc2cc(C)c(C(C)=O)c(O)c12` [ISOTORACHRYSONE] has an Activity [13] of 20.2%, an Activity [14] of 92.2% and an Activity [15] of 39.1%. The Activity [16] was 94.2% and the Activity [17] was 0%.
